PubChem BioAssay AID652006 (Sanford-Burnham Center for Chemical Genomics, 2013)
Calls of active or inactive are those of the source.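 How the source made its calls: active means compounds that inhibit the LYP-1 phosphatase with IC50 at or below 20 µM; inactive means the rest.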

Target: Tyrosine-protein phosphatase non-receptor type 22 (Homo sapiens) (UniProt Q9Y2R2)
Assay: PTPN22 enzyme inhibitors – biochemical, fluorescence, LYP catalytic domain, selectivity assay for LMPTP inhibitor project, dose response (AID 652006)
Details: His-LYP catalytic domain, OMFP fluorescence, 50 min

Sequence of Tyrosine-protein phosphatase non-receptor type 22 (Homo sapiens) (Q9Y2R2 whole entry, looked up, the tested form may be a part): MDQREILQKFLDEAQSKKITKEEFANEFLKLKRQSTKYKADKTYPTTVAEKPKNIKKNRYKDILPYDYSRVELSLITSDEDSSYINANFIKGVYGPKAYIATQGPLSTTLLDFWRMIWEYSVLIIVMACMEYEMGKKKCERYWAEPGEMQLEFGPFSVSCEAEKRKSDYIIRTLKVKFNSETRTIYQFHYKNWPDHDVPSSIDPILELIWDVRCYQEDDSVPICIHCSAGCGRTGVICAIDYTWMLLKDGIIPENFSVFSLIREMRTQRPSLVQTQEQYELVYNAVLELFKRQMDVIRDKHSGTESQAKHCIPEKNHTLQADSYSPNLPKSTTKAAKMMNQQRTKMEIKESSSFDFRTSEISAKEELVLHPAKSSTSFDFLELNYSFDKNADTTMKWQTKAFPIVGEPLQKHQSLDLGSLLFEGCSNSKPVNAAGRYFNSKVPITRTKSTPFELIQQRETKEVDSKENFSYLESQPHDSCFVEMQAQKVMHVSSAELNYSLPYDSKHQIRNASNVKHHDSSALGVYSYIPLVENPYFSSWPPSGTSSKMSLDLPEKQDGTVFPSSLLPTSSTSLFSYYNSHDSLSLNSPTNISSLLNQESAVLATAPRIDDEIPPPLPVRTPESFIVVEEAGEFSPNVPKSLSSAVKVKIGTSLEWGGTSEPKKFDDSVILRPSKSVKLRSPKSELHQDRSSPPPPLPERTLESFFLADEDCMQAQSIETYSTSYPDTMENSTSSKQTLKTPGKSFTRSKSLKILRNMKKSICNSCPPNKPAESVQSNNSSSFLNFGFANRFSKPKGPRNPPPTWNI

IC50: > 80 µM (inactive)
Structure (SMILES): Clc1cccc(Cl)c1Cn1cnc(=NCc2ccco2)c2[nH]cnc21
